Data reported in publication PMC11397024, “Strategic Fluorination to Achieve a Potent, Selective, Metabolically Stable, and Orally Bioavailable Inhibitor of CSNK2” (Molecules, 2024).

Tests used:
Format in all cases: cell-based
RIPK2 = molecular target: T1, RIPK2 (Homo sapiens, UniProt O43353); assay: NanoBRET K192; conditions: HEK293
T1 construct: purchased Promega (NanoBRET Target Engagement K192 Kinase Selectivity System)
Outline: (§1)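 HEK293 cells were transfected overnight with NanoLuc–kinase fusion vectors, then treated for 2 h at 37 °C with compound (added as 100 μM working solution) plus K10 tracer. BRET was read at 450/610 nm after substrate and extracellular inhibitor, and fractional occupancy was calculated against no-compound controls.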

NLK = molecular target: T2, NLK (Homo sapiens, UniProt Q9UBE8); assay: NanoBRET K192; conditions: HEK293
T2 construct: purchased Promega (NanoBRET Target Engagement K192 Kinase Selectivity System)
Outline: as §1

STK36 = molecular target: T3, STK36 (Homo sapiens, UniProt Q9NRP7); assay: NanoBRET K192; conditions: HEK293
T3 construct: host or cells: HEK293
Outline: as §1

MAPK11 = molecular target: T4, MAPK11 (Homo sapiens, UniProt Q15759); assay: NanoBRET K192; conditions: HEK293
T4 construct: purchased Promega (NanoBRET Target Engagement K192 Kinase Selectivity System)
Outline: as §1

EPHA1 = molecular target: T5, EPHA1 (Homo sapiens, UniProt P21709); assay: NanoBRET K192; conditions: HEK293
T5 construct: purchased Promega (NanoBRET Target Engagement K192 Kinase Selectivity System)
Outline: as §1

FES = molecular target: T6, FES (Homo sapiens, UniProt P07332); assay: NanoBRET K192; conditions: HEK293
T6 construct: purchased Promega (NanoBRET Target Engagement K192 Kinase Selectivity System)
Outline: as §1

TLK2 = molecular target: T7, TLK2 (Homo sapiens, UniProt Q86UE8); assay: NanoBRET K192; conditions: HEK293
T7 construct: purchased Promega (NanoBRET Target Engagement K192 Kinase Selectivity System)
Outline: as §1

CSNK2A2 = molecular target: T8, CSNK2A2 (Homo sapiens, UniProt P19784); assay: NanoBRET assay CSNK2A2; conditions: HEK293 cells, singlicate, read-out: CSNK2A2 pIC50 (converted)
T8 construct: expressed in transfected cells; host or cells: HEK293
Description: Assays were run using a modified version of the previously published protocols. […] A transfection complex of DNA (10 μg/mL) was generated consisting of 9 μg/mL carrier DNA (Promega, Madison, WI, USA) and 1 μg/mL CSNK2A-NLuc fusion DNA in Opti-MEM without serum (Gibco). FuGENE HD (Promega) was added at 30 μL/mL to form a lipid–DNA complex. The solution was then mixed and incubated at room temperature for 20 min. The transfection complex was mixed with a 20× volume of HEK293 cells in DMEM/FBS to arrive at a final concentration of 200,000 cells/mL, and 100 μL/well was added to a 96-well plate that was incubated overnight at 37 °C and 5% CO2. The following day, the medium was removed via aspiration and replaced with 85 μL of Opti-MEM without phenol red. A total of 5 μL per well of 20× NanoBRET Tracer K10 (Promega) at 10 μM for CSNK2A1 or 5 μM for CSNK2A2 in Tracer Dilution Buffer (Promega N291B) was added to all wells, except the “no tracer” control wells. Test compounds (10 mM in DMSO) were diluted 100× in Opti-MEM media to prepare stock solutions and evaluated at 11 concentrations. A total of 10 μL per well of the 10-fold test compound stock solutions (final assay concentration of 0.1% DMSO) were added. […] The plates were read within 30 min on a GloMax Discover luminometer (Promega) equipped with a 450 nm BP filter (donor) and 600 nm LP filter (acceptor) using 0.3 s of integration time. […]

T8 sequence (P19784 whole entry): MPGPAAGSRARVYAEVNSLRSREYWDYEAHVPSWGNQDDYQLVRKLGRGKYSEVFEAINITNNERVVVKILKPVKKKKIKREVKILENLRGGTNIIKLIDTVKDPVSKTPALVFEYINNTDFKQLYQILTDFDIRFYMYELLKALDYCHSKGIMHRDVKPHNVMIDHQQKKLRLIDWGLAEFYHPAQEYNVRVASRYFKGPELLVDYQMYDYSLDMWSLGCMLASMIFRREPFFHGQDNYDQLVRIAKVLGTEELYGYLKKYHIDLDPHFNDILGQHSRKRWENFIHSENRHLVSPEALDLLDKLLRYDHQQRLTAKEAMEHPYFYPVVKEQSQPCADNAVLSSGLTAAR
T6 sequence (P07332 whole entry): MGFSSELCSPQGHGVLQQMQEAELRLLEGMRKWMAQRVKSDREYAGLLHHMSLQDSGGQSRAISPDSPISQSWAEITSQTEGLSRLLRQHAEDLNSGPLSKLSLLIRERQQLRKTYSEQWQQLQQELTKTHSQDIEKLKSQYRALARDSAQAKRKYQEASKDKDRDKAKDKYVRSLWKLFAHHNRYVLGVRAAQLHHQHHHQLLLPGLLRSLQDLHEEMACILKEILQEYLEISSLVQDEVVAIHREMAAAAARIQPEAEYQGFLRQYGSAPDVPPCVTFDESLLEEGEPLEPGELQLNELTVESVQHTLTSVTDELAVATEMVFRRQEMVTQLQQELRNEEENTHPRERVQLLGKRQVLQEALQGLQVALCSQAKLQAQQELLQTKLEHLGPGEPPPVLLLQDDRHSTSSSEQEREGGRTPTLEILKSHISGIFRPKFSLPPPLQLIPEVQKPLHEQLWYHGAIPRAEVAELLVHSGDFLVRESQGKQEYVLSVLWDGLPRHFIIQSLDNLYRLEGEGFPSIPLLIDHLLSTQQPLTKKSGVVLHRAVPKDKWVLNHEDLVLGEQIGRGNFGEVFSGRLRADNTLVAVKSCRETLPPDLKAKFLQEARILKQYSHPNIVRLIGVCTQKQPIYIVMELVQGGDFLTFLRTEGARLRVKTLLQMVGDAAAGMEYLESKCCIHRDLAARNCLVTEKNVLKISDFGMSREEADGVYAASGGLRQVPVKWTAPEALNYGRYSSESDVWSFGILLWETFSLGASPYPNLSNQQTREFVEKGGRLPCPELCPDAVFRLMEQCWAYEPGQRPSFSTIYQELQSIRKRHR
T3 sequence (Q9NRP7 whole entry): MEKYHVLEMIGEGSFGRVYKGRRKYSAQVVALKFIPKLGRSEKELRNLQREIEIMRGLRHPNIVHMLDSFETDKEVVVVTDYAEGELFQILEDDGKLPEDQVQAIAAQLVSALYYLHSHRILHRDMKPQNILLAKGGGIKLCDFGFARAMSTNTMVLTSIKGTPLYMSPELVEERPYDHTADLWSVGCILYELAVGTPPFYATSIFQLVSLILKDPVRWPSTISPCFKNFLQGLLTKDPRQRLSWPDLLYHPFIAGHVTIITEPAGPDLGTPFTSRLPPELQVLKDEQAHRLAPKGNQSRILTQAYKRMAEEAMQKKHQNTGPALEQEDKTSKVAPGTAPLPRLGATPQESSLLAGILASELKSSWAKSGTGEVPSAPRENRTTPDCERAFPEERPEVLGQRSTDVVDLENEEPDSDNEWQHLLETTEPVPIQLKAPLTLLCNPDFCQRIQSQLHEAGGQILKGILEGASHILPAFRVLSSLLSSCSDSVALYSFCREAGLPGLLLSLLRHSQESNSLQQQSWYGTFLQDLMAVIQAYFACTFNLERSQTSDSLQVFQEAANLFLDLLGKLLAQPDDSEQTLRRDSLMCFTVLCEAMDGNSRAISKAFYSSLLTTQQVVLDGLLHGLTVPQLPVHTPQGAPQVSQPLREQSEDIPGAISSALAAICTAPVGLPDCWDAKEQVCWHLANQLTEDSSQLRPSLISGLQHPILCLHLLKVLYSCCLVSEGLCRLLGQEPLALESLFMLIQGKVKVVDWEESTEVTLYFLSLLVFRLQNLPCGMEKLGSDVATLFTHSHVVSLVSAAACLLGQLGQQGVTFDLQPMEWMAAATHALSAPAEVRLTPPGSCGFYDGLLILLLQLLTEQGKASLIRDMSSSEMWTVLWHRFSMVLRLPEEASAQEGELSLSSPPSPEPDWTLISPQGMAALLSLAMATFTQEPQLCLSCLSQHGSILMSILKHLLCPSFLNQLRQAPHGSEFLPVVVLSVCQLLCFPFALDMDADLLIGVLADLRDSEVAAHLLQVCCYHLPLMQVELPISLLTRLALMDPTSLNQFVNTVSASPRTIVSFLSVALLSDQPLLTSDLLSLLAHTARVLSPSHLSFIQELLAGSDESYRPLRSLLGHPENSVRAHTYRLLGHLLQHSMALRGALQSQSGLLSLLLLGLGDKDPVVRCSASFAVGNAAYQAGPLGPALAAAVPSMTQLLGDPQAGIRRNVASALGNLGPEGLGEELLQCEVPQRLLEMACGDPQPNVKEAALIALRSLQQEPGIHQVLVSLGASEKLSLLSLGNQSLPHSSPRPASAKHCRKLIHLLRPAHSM
T5 sequence (P21709 26-976): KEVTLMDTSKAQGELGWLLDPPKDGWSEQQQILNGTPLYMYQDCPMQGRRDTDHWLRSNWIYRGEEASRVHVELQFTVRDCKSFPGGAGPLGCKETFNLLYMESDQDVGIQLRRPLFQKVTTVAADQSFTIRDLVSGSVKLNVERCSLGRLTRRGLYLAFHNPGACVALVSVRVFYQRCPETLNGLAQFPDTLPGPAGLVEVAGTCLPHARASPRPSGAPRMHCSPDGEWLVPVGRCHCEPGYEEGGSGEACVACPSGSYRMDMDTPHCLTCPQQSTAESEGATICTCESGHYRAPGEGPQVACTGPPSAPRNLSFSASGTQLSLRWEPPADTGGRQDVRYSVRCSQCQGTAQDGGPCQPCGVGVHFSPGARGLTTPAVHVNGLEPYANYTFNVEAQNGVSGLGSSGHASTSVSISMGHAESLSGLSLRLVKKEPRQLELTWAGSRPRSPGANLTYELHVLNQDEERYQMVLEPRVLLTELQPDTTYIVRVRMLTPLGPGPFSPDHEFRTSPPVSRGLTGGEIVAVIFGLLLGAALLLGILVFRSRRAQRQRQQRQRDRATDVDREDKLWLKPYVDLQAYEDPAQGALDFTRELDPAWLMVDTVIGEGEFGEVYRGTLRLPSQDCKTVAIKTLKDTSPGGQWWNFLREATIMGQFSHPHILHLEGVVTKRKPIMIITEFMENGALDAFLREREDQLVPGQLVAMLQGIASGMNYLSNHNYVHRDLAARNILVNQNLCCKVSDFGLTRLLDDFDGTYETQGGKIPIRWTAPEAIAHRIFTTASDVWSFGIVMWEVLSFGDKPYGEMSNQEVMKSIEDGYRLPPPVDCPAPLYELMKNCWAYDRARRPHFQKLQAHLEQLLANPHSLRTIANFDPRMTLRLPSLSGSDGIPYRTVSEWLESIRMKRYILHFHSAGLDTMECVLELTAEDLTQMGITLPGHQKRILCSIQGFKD
T1 sequence (O43353 whole entry): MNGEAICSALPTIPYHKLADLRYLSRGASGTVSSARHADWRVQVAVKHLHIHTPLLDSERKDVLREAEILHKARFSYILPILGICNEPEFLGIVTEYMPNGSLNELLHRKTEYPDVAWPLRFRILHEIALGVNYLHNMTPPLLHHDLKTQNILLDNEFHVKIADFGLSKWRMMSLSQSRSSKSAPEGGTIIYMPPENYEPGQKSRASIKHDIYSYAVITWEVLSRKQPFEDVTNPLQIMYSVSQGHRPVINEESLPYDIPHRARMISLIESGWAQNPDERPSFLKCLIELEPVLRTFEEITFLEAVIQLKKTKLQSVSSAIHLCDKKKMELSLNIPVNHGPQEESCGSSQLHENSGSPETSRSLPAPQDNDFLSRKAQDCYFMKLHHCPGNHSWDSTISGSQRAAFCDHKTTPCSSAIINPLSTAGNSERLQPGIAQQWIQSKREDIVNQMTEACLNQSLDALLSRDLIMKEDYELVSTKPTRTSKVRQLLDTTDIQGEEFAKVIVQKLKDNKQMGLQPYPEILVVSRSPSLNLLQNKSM
T7 sequence (Q86UE8 whole entry): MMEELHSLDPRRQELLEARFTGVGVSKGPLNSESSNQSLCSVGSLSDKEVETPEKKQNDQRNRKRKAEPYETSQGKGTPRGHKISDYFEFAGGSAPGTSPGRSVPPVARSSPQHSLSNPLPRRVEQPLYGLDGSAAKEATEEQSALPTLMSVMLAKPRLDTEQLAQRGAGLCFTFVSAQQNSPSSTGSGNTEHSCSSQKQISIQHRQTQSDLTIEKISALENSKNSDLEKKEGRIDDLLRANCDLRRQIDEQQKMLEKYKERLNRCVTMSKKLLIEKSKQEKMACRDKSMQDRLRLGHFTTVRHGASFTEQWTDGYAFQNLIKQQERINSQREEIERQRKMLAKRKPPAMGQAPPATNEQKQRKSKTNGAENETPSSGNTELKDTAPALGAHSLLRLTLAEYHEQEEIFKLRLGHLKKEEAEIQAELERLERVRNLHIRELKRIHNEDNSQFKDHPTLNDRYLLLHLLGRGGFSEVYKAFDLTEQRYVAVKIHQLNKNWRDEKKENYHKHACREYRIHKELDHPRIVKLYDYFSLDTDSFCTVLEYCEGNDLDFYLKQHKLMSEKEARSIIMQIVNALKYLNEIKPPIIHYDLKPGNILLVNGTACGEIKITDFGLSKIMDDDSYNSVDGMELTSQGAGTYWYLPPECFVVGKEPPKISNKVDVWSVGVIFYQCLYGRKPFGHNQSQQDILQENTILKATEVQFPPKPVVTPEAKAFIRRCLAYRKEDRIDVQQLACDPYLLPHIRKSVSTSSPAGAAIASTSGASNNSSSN

CCC(=O)Nc1cc(Nc2cc(NC3CC3)n3ncc(C#N)c3n2)c(F)cc1N1CCC[C@H](NC)C1 [Compound 2, (S)-N-(5-((3-cyano-7-(cyclopropylamino)pyrazolo[1,5-a]pyrimidin-5-yl)amino)-4-fluoro-2-(3-(methylamino)piperidin-1-yl)phenyl)propionamide]
receptor occupancy at 10 µM (RIPK2): 9.3% | receptor occupancy at 10 µM (NLK): 11.9% | receptor occupancy at 10 µM (STK36): -7.6% | receptor occupancy at 10 µM (MAPK11): 9.4% | receptor occupancy at 10 µM (EPHA1): 7.7% | receptor occupancy at 10 µM (FES): 11.7% | receptor occupancy at 10 µM (TLK2): 4.6% | IC50 (CSNK2A2): 12.6 nM
